Source: PubChem BioAssay AID1918938 (Molecular Pharmacology Branch, DTP, NCI, 2023)

Tested on: 556581-035-R-J1-PDC complex spheroid viability
Assay: Anticancer human tumor 556581-035-R-J1-PDC patient-derived ovarian carcinoma cell line growth inhibition
Settings: for IC50: curve of first compound; for viability, T/C: stronger effect = lower value
Summary of the method: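 Complex spheroids of tumor cells with HUVEC and human MSCs, exposed to iadademstat combined with other agents. Each agent tested in half-log steps from near clinical Cmax (else 10 microM top), DMSO ≤0.25%.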

[1] = second compound 0.1 µM, first compound 0.0316 µM
[2] = second compound 0.1 µM, first compound 0.1 µM
[3] = second compound 0.1 µM, first compound 0.316 µM
[4] = second compound 0.1 µM, first compound 1 µM
[5] = second compound 0.316 µM, first compound 0.0316 µM
[6] = second compound 0.316 µM, first compound 0.1 µM
[7] = second compound 0.316 µM, first compound 0.316 µM
[8] = second compound 0.316 µM, first compound 1 µM
[9] = second compound 1 µM, first compound 0.0316 µM
[10] = second compound 1 µM, first compound 0.1 µM
[11] = second compound 1 µM, first compound 0.316 µM
[12] = second compound 1 µM, first compound 1 µM
[13] = second compound 3.16 µM, first compound 0.0316 µM
[14] = second compound 3.16 µM, first compound 0.1 µM
[15] = second compound 3.16 µM, first compound 0.316 µM
[16] = second compound 3.16 µM, first compound 1 µM
[17] = second compound 10 µM, first compound 0.0316 µM
[18] = second compound 10 µM, first compound 0.1 µM
[19] = second compound 10 µM, first compound 0.316 µM
[20] = second compound 10 µM, first compound 1 µM
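Further: spheroids exposed to agents for seven days.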
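Wherever viability, T/C is given: 100% = DMSO vehicle control wells.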

SMILES	IC50 (second compound 0.1 µM)	IC50 (second compound 0.316 µM)	IC50 (second compound 1 µM)	IC50 (second compound 3.16 µM)	IC50 (second compound 10 µM)	viability, T/C [1]	viability, T/C [2]	viability, T/C [3]	viability, T/C [4]	viability, T/C [5]	viability, T/C [6]	viability, T/C [7]	viability, T/C [8]	viability, T/C [9]	viability, T/C [10]	viability, T/C [11]	viability, T/C [12]	viability, T/C [13]	viability, T/C [14]	viability, T/C [15]	further results
CC1COCCN1c1cc(-c2ccnn2C)c2ccnc(-c3ccn[nH]3)c2n1 (stereo not given) + NC1CC1c1ccc(-c2cccc(O)c2)cc1	5.22 nM	4.45 nM	3.3 nM	5.31 nM	8.98 nM	33.5%	25.4%	21.7%	10.2%	33.4%	23.8%	23%	10.6%	34.3%	26.4%	26.1%	9.41%	38.5%	29.2%	26.9%	viability, T/C (second compound 0.1 µM, first compound 0.00316 µM): 54.8%; viability, T/C (second compound 0.1 µM, first compound 0.01 µM): 44%; viability, T/C (second compound 0.316 µM, first compound 0.00316 µM): 51.2%; viability, T/C (second compound 0.316 µM, first compound 0.01 µM): 47.9%; viability, T/C (second compound 1 µM, first compound 0.00316 µM): 49.5%; viability, T/C (second compound 1 µM, first compound 0.01 µM): 47.1%; viability, T/C (second compound 3.16 µM, first compound 0.00316 µM): 54.6%; viability, T/C (second compound 3.16 µM, first compound 0.01 µM): 44.5%; viability, T/C [16]: 11%; viability, T/C (second compound 10 µM, first compound 0.00316 µM): 55.3%; viability, T/C (second compound 10 µM, first compound 0.01 µM): 49.9%; viability, T/C [17]: 36.4%; viability, T/C [18]: 29.7%; viability, T/C [19]: 26%; viability, T/C [20]: 25.6%
CC1COCCN1c1cc(C2(S(C)(=N)=O)CC2)nc(-c2ccnc3[nH]ccc23)n1 (stereo not given) + NC1CC1c1ccc(-c2cccc(O)c2)cc1	5950 nM	5940 nM	5370 nM	> 10000 nM	> 10000 nM	101%	98.6%	78.9%	72.3%	95.3%	85.5%	77.8%	70.7%	87.9%	88.9%	84.3%	77.4%	87.9%	96%	85.5%	viability, T/C (second compound 0.1 µM, first compound 3.16 µM): 52.5%; viability, T/C (second compound 0.1 µM, first compound 10 µM): 46.7%; viability, T/C (second compound 0.316 µM, first compound 3.16 µM): 52.6%; viability, T/C (second compound 0.316 µM, first compound 10 µM): 46.3%; viability, T/C (second compound 1 µM, first compound 3.16 µM): 53.7%; viability, T/C (second compound 1 µM, first compound 10 µM): 45.5%; viability, T/C [16]: 70.5%; viability, T/C (second compound 3.16 µM, first compound 3.16 µM): 54.2%; viability, T/C (second compound 3.16 µM, first compound 10 µM): 50.9%; viability, T/C [17]: 88.4%; viability, T/C [18]: 84.8%; viability, T/C [19]: 78.3%; viability, T/C [20]: 69.7%; viability, T/C (second compound 10 µM, first compound 3.16 µM): 51.3%; viability, T/C (second compound 10 µM, first compound 10 µM): 54.7%
